Our source for the GI50 and TGI values is PubChem BioAssay (NCI).

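Five concentrations, 48 hours, 96-well plates. GI50: concentration for 50% inhibition of growth. Definition used: TGI = concentration required for complete inhibition of growth.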 Some results are limits rather than exact numbers.

Test systems include MOLT-4 leukemia; HOP-62 NSCLC; SF-539 CNS; M14 melanoma; RXF 393 renal; HOP-92 NSCLC; SN12C renal; SNB-19 CNS; LOX IMVI melanoma; NCI-H226 lung.
Common to all, as to assay: growth of human tumour cells (NCI), 48 h

Turning to `C=[CH][Sn]([CH]=C)([O]c1cccc2cccnc12)[O]c1cccc2cccnc12`, the GI50 in the test with MOLT-4 leukemia was 1.42 µM; with HOP-62 NSCLC, 10.7 µM; in the test with SF-539 CNS, 2.85 µM; in the test with M14 melanoma, 2.11 µM; with RXF 393 renal, 0.28 µM; in the test with HOP-92 NSCLC, 6.52 µM. Besides, the GI50 was 4.45 µM in the test with SN12C renal, 8.36 µM with SNB-19 CNS, 1.46 µM with LOX IMVI melanoma and 2.95 µM in the test on NCI-H226 lung. The TGI with MOLT-4 leukemia turned out to be 11.1 µM; with HOP-62 NSCLC, 32.8 µM; in the test with SF-539 CNS, 9.27 µM; in the test on M14 melanoma, 5.92 µM; in the test on RXF 393 renal it was 1.21 µM; with HOP-92 NSCLC, 19.5 µM. The TGI was found to be 17.5 µM in the test on SN12C renal, 23.8 µM in the test on SNB-19 CNS, 4.86 µM in the test on LOX IMVI melanoma and 9.47 µM with NCI-H226 lung.

For the compound `CC1(C)OC2C(COS(N)(=O)=O)SC(n3cnc4cncnc43)C2O1` (stereo not given), the GI50 with MOLT-4 leukemia, in the test with HOP-62 NSCLC, in the test with SF-539 CNS, in the test with M14 melanoma, in the test with RXF 393 renal and with HOP-92 NSCLC was above 100 µM in each case. The GI50 with SN12C renal, with SNB-19 CNS, in the test with LOX IMVI melanoma and in the test on NCI-H226 lung was above 100 µM throughout. Besides, the TGI in the test with MOLT-4 leukemia, with HOP-62 NSCLC, with SF-539 CNS, in the test on M14 melanoma, with RXF 393 renal and in the test on HOP-92 NSCLC was above 100 µM in each case. The TGI with SN12C renal, in the test on SNB-19 CNS, in the test with LOX IMVI melanoma and with NCI-H226 lung was above 100 µM throughout.

As to `CCOc1ccc(C(CN2CCOCC2)C(C)=O)cc1OC` (stereo not given), the TGI is above 100 µM in the test on MOLT-4 leukemia; 40.4 µM with HOP-62 NSCLC; 32.8 µM in the test on SF-539 CNS; 33.7 µM in the test on M14 melanoma; 41.1 µM in the test on RXF 393 renal; 35.7 µM with HOP-92 NSCLC. Further, the TGI with SN12C renal stood at 31.2 µM; with SNB-19 CNS it was 32 µM; in the test on LOX IMVI melanoma it was 31.1 µM; with NCI-H226 lung, 32.4 µM.

As to `CN(C=O)/C=C/c1cc(O)ccc1O`, the TGI is 29.4 µM in the test with MOLT-4 leukemia; above 71.5 µM in the test on HOP-62 NSCLC; above 65.4 µM with SF-539 CNS; above 57.9 µM in the test with M14 melanoma; 34.1 µM with RXF 393 renal; 34.8 µM with HOP-92 NSCLC. The TGI with SN12C renal was 44.3 µM; with SNB-19 CNS, above 100 µM; in the test with LOX IMVI melanoma it was 45 µM; in the test with NCI-H226 lung, above 78.7 µM.

Consider `COc1ccc(CCc2cc(OC)c(OC)c(OC)c2)cc1`, for which the TGI in the test on MOLT-4 leukemia turned out to be 6.26 µM; in the test on HOP-62 NSCLC, 14 µM; with SF-539 CNS it was 0.146 µM; with M14 melanoma, 16 µM; in the test on RXF 393 renal, 0.057 µM; in the test with HOP-92 NSCLC it was 62.7 µM. Besides, the TGI was above 91.2 µM in the test on SN12C renal, above 100 µM in the test on SNB-19 CNS, 39.5 µM in the test on LOX IMVI melanoma and 7.46 µM in the test on NCI-H226 lung.

In the case of `CCOP(=O)(Nc1ccc2oc(=O)c3ccccc3c2c1)OCC`, the TGI in the test with MOLT-4 leukemia, in the test with HOP-62 NSCLC, in the test on SF-539 CNS, with M14 melanoma, in the test with RXF 393 renal and in the test with HOP-92 NSCLC was above 100 µM in each case. Besides, the TGI with SN12C renal, in the test with SNB-19 CNS, in the test with LOX IMVI melanoma and with NCI-H226 lung was above 100 µM throughout.

In the case of `O=c1cc(-c2ccccn2)[nH]c2ccc(Cl)cc12`, the TGI in the test with MOLT-4 leukemia, in the test on HOP-62 NSCLC, with SF-539 CNS, in the test on M14 melanoma, in the test on RXF 393 renal and in the test on HOP-92 NSCLC was above 100 µM in each case. Also, the TGI with SN12C renal, in the test with SNB-19 CNS, in the test on LOX IMVI melanoma and in the test with NCI-H226 lung was above 100 µM in each case. Further, the GI50 was 34 µM in the test with RXF 393 renal and 46.5 µM in the test with NCI-H226 lung.

On to `COc1cccc(NC(=O)C(=O)C(C(C)=O)c2nc3ccc(Cl)cc3[nH]c2=O)c1` (stereo not given), for which the TGI in the test on MOLT-4 leukemia, with HOP-62 NSCLC, with SF-539 CNS, in the test with M14 melanoma, in the test with RXF 393 renal and with HOP-92 NSCLC was above 100 µM in each case. For the same compound, the TGI in the test on SN12C renal, with SNB-19 CNS, in the test on LOX IMVI melanoma and with NCI-H226 lung was above 100 µM throughout.

In the case of `COc1cc(/C=C(\C#N)C(N)=C(C#N)C#N)cc(O)c1O`, the TGI in the test with MOLT-4 leukemia, in the test on HOP-62 NSCLC, in the test with SF-539 CNS, in the test with M14 melanoma, in the test with RXF 393 renal and with HOP-92 NSCLC was above 100 µM each time. For the same compound, the TGI with SN12C renal, with SNB-19 CNS, in the test on LOX IMVI melanoma and in the test on NCI-H226 lung was above 100 µM each time.

Regarding `O=C1CN(/N=C/c2ccc(-c3ccc(F)cc3)o2)C(=O)N1`, the TGI with MOLT-4 leukemia was above 100 µM; in the test on HOP-62 NSCLC, above 100 µM; in the test on SF-539 CNS, above 100 µM; in the test with M14 melanoma it was above 100 µM; with RXF 393 renal it was above 100 µM; in the test with HOP-92 NSCLC, 57.8 µM. Besides, the TGI is above 100 µM in the test on SN12C renal, above 100 µM in the test on SNB-19 CNS, above 100 µM with LOX IMVI melanoma and 88.5 µM with NCI-H226 lung.

Regarding `CC(NC(=O)c1ccccc1)(C(=O)O)C(=O)O`, the TGI with MOLT-4 leukemia, in the test with HOP-62 NSCLC, with SF-539 CNS, with M14 melanoma, in the test on RXF 393 renal and in the test with HOP-92 NSCLC was above 100 µM each time. The TGI in the test with SN12C renal, in the test on SNB-19 CNS, with LOX IMVI melanoma and in the test with NCI-H226 lung was above 100 µM throughout.

With `O=C(Nc1ccccc1C(=O)N/N=C(\c1ccccc1)c1ccccn1)c1ccc(F)cc1`, the GI50 is 0.284 µM with MOLT-4 leukemia; 0.214 µM with HOP-62 NSCLC; 0.298 µM with SF-539 CNS; 0.276 µM with M14 melanoma; 0.576 µM in the test with RXF 393 renal; 1.42 µM in the test with HOP-92 NSCLC. The GI50 was 0.584 µM in the test with SN12C renal, 0.502 µM in the test with SNB-19 CNS, 0.247 µM with LOX IMVI melanoma and 0.366 µM in the test with NCI-H226 lung. Moreover, the TGI is above 100 µM in the test on MOLT-4 leukemia; above 38.5 µM in the test on HOP-62 NSCLC; 3.89 µM with M14 melanoma; 9.17 µM with RXF 393 renal; above 100 µM in the test with HOP-92 NSCLC; above 100 µM with SN12C renal. Further, the TGI in the test on SNB-19 CNS and with LOX IMVI melanoma was above 100 µM each time.

Consider `CC(=O)Oc1ccc(/C=N/NC(N)=S)nc1`, for which the GI50 is 2.57 µM in the test on MOLT-4 leukemia; 6.15 µM in the test with HOP-62 NSCLC; 2.36 µM with SF-539 CNS; 2.72 µM in the test with M14 melanoma; 4.24 µM in the test with RXF 393 renal; 12.9 µM in the test with HOP-92 NSCLC. Moreover, the GI50 in the test on SN12C renal is 4.06 µM; with SNB-19 CNS, 8.77 µM; in the test with LOX IMVI melanoma, 3.54 µM; in the test on NCI-H226 lung, 22.1 µM. In addition, the TGI is above 100 µM with MOLT-4 leukemia; 77.6 µM in the test on HOP-62 NSCLC; above 100 µM in the test with SF-539 CNS; 8.72 µM in the test on M14 melanoma; above 100 µM with RXF 393 renal; above 100 µM in the test with HOP-92 NSCLC. The TGI in the test with SN12C renal is above 100 µM; in the test on SNB-19 CNS, above 100 µM; with LOX IMVI melanoma it was above 100 µM; with NCI-H226 lung it was 74.3 µM.

`Cc1nc(-n2nc(-c3ccccc3)cc2-c2ccccc2)sc1C(/C=C/c1ccc([N+](=O)[O-])cc1)=N/NC(=O)c1ccncc1`: the TGI with MOLT-4 leukemia was 43.4 µM; in the test with HOP-62 NSCLC, 35 µM; with SF-539 CNS, 41.5 µM; in the test with M14 melanoma, 50.7 µM; in the test on RXF 393 renal, 76.6 µM; with HOP-92 NSCLC it was 54.8 µM. For the same compound, the TGI is above 100 µM with SN12C renal, above 100 µM with SNB-19 CNS, 48.8 µM with LOX IMVI melanoma and 56.9 µM in the test on NCI-H226 lung.

As to `Cc1cc(Cl)ccc1Nc1nc(C(F)(F)F)ccc1C(=O)N1CCN(c2cccc(Cl)c2)CC1`, the GI50 with MOLT-4 leukemia was 19.6 µM; in the test with HOP-62 NSCLC, above 100 µM; with SF-539 CNS it was above 100 µM; in the test on M14 melanoma it was above 100 µM; in the test on RXF 393 renal, above 100 µM; with HOP-92 NSCLC it was 73.4 µM. Besides, the GI50 in the test with SN12C renal, with SNB-19 CNS, in the test with LOX IMVI melanoma and in the test on NCI-H226 lung was above 100 µM each time. The TGI with MOLT-4 leukemia, in the test with HOP-62 NSCLC, in the test with SF-539 CNS, in the test on M14 melanoma, with RXF 393 renal and in the test with HOP-92 NSCLC was above 100 µM throughout. For the same compound, the TGI in the test on SN12C renal, in the test on SNB-19 CNS, in the test on LOX IMVI melanoma and with NCI-H226 lung was above 100 µM throughout.
